In patent publication US20100240887A1, “New methods of producing HHT” (priority 2009, published 2010):
Read-outs that look alike come from different tables or passages of the source.

Experiments:
LD50 in mice = type: in vivo; details: mouse, in vivo, intraperitoneal; injection in abdominal cavity in mice
Source text: (§1) • 1. […] LD50 of HHT is much higher than majority anticancer drugs. The toxicology data of HHT mean that HHT is safe drug for treatment of cancer cells.

dogs [1] = details: dog, in vivo
Protocol: (§8) Forty dogs were used. Body weight, food consumption, general observations, laboratory tests, and postmortem examinations were determined.
(§9) Twenty normal adult dogs had weight approximately 10 kg±1 kg used in experiments. Toxic doses for dogs: 0.15 mg/kg/days×7 and 0.30 mg/kg/days×7 of HHT was injected as the toxic doses.
(§10) For HHT treatment group, at least eight dogs that died early in the observation period and eight dogs that died late were examined.

[2] = test system: Malignant melanoma of the pigmented layers of eyes; assay: Inhibition of tumor cell proliferation, malignant melanoma of eyes; type: cell-based; details: 1 μg/ml, 72 hours
Protocol: (§2) Human tumor cell lines: Hela leukemia HL-60, malignant melanocarcinoma B16, oral epidermoid carcinoma (KB), lung carcinoma (A549), breast carcinoma MCF-7, adenocarcinoma of stomach.
(§3) Animal tumor cell lines: Walker carcinoma, LLC-WRC-256, malignant melanoma (RMMI 1846), 3T3, and S-180 sarcoma (CCRF-180). All lines were routinely cultured in the RPMI1640 medium supplemented 20% fetal calf serum. The experiment was carried out in 96 microplate, each well had 5×10^5 cells and given desired concentration of 1 μg/ml (1×10^−6 g/ml) drug. Then the plate was incubated at […] in an atmosphere of humidified air enriched with 5 percent carbon dioxide for 72 hours.
(§4) Inhibition percent rate of tumor cell proliferation was obtained according to the bellow formula.

tyrosine kinase (TK) = assay: Tyrosine kinase (TK) assay in HL-60 leukemia cells; type: cell-based, human; details: for % of control activity (TK): Table 8, concentration not given
Protocol: Tyrosine kinase (TK) Assay: TK was measured by a modification of the method of Braun et al. Briefly, H-60 leukemia cells were plated at a density of 5×10^5 cells in […], and divided control and treatments groups for incubation 24 hours at 37° C. with 5% CO2. The cells were collected by scraping, washed twice with phosphate-buffered saline, and resuspended at density of 10^6 cells/ml in 5 mM HEPEs buffer (pH 7.4). The cells were then resuspended in 1 ml of buffer containing 5 mM HEPES (pH 7.6), 1 mM MgCl2 and 1 mM EDTA, then placed on ice bath. The cell membrane was disrupted by ultra sound and centrifuged at 1,000×g for 10 minutes. The supernatant was ultra centrifuged at 30,000×g for 30 minutes at 4° C. The pellet was resuspended in 0.3 ml of buffer containing 25 mM HEOES, centrifuged at 12,000×g for 5 minutes. The resulting supernatant was used for TK assay. Content of protein was determined. 10 μg of protein placed in 20 mM HEPES (pH 7.6), 15 mM MgCl2, 10 mM ZnCl2 and 5% (v/v) nonidet P-40, with or without substrate [glutamic acid (GT), mg/ml]. After 5 minutes incubation at 25° C., the reaction was initiated by the addition of 25 μM [γ^32P] ATP (3 ci/mmol). After 10 minutes, the reaction was stopped by the addition of 20 mM cold ATP. 50 μl of the mixtures were spotted on glass microfiber filter discs and washed three times with cold trichloroacetic acid (TCA), contained 10 mM sodium pyrophosphate. Air dried. Radioactivity was determined by liquid scintillation spectrometry. The net TK activity was determined after correcting for endogenous TK activity.

dogs [3] = assay: Short-term toxicity in dogs
Protocol: as §8, §9, §10

gastric cancer cells = assay: Cellular diversion of gastric cancer cells (NBT); type: cell-based
Malignant melanoma cells = assay: Apoptosis of malignant melanoma cells; type: cell-based; details: 50 ng/ml
Protocol: (§5) Cells ([…] were incubated in 10 ml IMDM plus […] heat-inactivated fetal calf serum. Samples were incubated for 24 hours with various concentrations of drugs. Control samples received the same amount of media, without drug addition. After 24 hours of incubation the samples were pelleted and fixed in ethanol […] for 15 minutes at 4° C.; after three washes in PBS, the cells were treated with RNase I 0.5 mg/ml for 15 minutes at 37° C. The cells were harvested by centrifugation and resuspended in 50 μg/ml propidium iodide in PBS. Analysis (upon acquisition of 10,000-20,000 events) was performed on a FACscan flow cytometer with the FL2 detector in logarithmic mode, using Lysis II software (Becton Dickinson). […]
(§6) For evaluation of apoptosis by flow cytometry, cells were fixed and permeabilized in 1% paraformaldehyde and ice-cold 70% ethanol. […] Green (apoptotic cells) and orange (total DNA) fluorescence were measured with a FACScan flow cytometer and analyzed with LYSIS II and CELLFIT programs. Data were analyzed by Student's t-test. […]
(§7) Untreated and treated HL-60 cells collected by centrifugation, washed in phosphate buffered saline and re-suspended at a concentration of 5×10^6 cells and 0.1% RNase A. The mixture was incubated at 37° C. for 30 min and then incubated for an additional 30 min at 37° C. […] DNA was precipitated with 0.5 N perchloric acid and quantitated using diphenylamine reagent. […]

mice = assay: LD50 in mice; type: in vivo; details: injection in abdominal cavity in mice
Source text: as §1

Leukemic cells = assay: Inhibition of tumor cell proliferation, leukemic cells; type: cell-based, human; details: 1 μg/ml, 72 hours
Protocol: as §2, §3, §4

[4] = test system: NNK-induced pulmonary adenomas; assay: NNK-induced lung tumorigenesis; type: in vivo; details: mice, 20 mg/kg daily by injection, NNK 10 μmol i.p., sixteen weeks
Protocol: Every group had 20 mice. […] For control group, each mouse was gave same volume of physiological saline. Three days later, mice were gave 10 μmol NNK (in 0.1 ml saline) by i.p. injection. Sixteen weeks after these treatments the mice were killed and pulmonary adenomas were counted. The statistical significance of bioassay data was determined by student's test.

HL-60 cells = assay: Cellular diversion of human leukemic cells (NBT); type: cell-based; details: human leukemic cells (HL-60); index of normal cells
L615 transplanted tumor = assay: Growth of transplanted tumor in mice; type: in vivo; details: intraperitoneally, 20 mg/kg, sacrificed on the 12th day
Protocol: Male mice, weight 20-22 g, were used in the experiment. 1×10^7 tumor cells were injected to mouse and other drugs injected intraperitoneally began second day. All mice were sacrificed on the 12th day, isolated the tumor and weighed and calculated the inhibition rate of tumor weight.
The effect of HHT on the growth of animal transplanted tumor as illustrated by the Table 6.20 mg/kg of other drugs could inhibit the growth of L615 transplanted tumor.

Normal cells = assay: Apoptosis of normal cells; type: cell-based; details: 50 ng/ml (Table 4)
Protocol: as §5, §6, §7

SMILES | Apoptosis (%) (Malignant melanoma cells) | LD50 (mice) [mg/kg] | Inhibition (%) (Leukemic cells) | Tumor incidence (%) [4] [%] | NBT (%) (HL-60 cells) | Inhibition (%) [2] [%] | % of control activity (TK) (tyrosine kinase (TK)) [%] | Inhibition (%) of transplanted tumor (tumor weight) (L615 transplanted tumor) [%] | Apoptosis (%) (Normal cells) | other results
COC(=O)C[C@](O)(CCCC(C)(C)O)C(=O)O[C@@H]1C(OC)=C[C@]23CCCN2CCc2cc4c(cc2[C@H]13)OCO4 [HHT, Homoharringtonine] |  |  |  |  |  |  |  |  |  | LD50 (LD50 in mice): 4.07 mg/kg; delayed toxicity (dogs [1]): No significant delayed toxicity; major target organs involved in toxicity (dogs [1]): G.I. tract, heart and hematopoietic organs; Heart rate (dogs [1]; 0.1 mg/kg/day): 205 beat/min; Leukocyte count (dogs [1]; 0.1 mg/kg/day): 3.90 ×10^3/mm^3; Heart rate (dogs [1]; 0.2 mg/kg/day): 230 beat/min; Leukocyte count (dogs [1]; 0.2 mg/kg/day): 3.58 ×10^3/mm^3; Heart rate (dogs [1]; 0.3 mg/kg/day): 259 beat/min; Leukocyte count (dogs [1]; 0.3 mg/kg/day): 3.20 ×10^3/mm^3; inhibition at 1 µg/mL [2]: 80 ± 9.2%; inhibition of TK activity (tyrosine kinase (TK); 10^−6 M): 99.9%; Heart rate (dogs [3]; 0.1 mg/kg/d × 7, ♀): 208 beat/min; Leukocyte count (dogs [3]; 0.1 mg/kg/d × 7, ♀): 3.91 ×10^3/mm^3; Heart rate (dogs [3]; 0.2 mg/kg/d × 7, ♀): 232 beat/min; Leukocyte count (dogs [3]; 0.2 mg/kg/d × 7, ♀): 3.65 ×10^3/mm^3; Heart rate (dogs [3]; 0.3 mg/kg/d × 7, ♀): 260 beat/min; Leukocyte count (dogs [3]; 0.3 mg/kg/d × 7, ♀): 3.25 ×10^3/mm^3
COC(=O)C[C@](O)(CCCC(C)(C)O)C(=O)O[C@@H]1C(OC)=C[C@]23CCCN2CCc2cc4c(cc2[C@H]13)OCO4 [C-HHT] | 43.8 ± 4.2 | 4.0 | 74.1 ± 10.8 | 21.7 ± 4.8 | 64 ± 8.0 | 83.1 ± 9.8 | 20.0 ± 5.0 | 67.8 ± 6.0 | 19.2 ± 2.5 | NBT (%) (gastric cancer cells): 57 ± 8.9 %
COC(=O)C[C@](O)(CCCC(C)(C)O)C(=O)O[C@@H]1C(OC)=C[C@]23CCCN2CCc2cc4c(cc2[C@H]13)OCO4 [S-HHT] | 43.0 ± 6.0 | 4.20 | 72.5 ± 11.6 | 26.5 ± 4.9 | 63 ± 7.8 | 82.5 ± 10.2 | 20.8 ± 4.8 | 69.2 ± 7.0 | 18.0 ± 2.0 | 
